From patent publication US20260242391A1 (priority 2023, published 2026)

Columns and labels:
[1] = system: HL-60; test: HL-60 differentiation potency; type: cell-based; conditions: Homo sapiens
[2] = in vitro; conditions: human

Row | EC50 [1] [nM] | IC50 [2] [nM] | SMILES
1 | 70.8 | 9000 | C[C@H]1[C@@H](Oc2ccc3c(c2)OC(C(=O)O)C3)O[C@@H]2O[C@@]3(C)CC[C@H]4[C@H](C)CC[C@@H]1[C@@]24OO3 (stereo partly drawn) [Compound 154, 6-(((3R,5aS,6R,8aS, 9R,10S,12R, 12aR)-3,6,9-trimethyldeca-hydro-12H-3,12-epoxy[1,2]dioxepino[4,3-i]isochromen-10-yl)oxy)-2,3-dihydrobenzo-furan-2-carboxylic acid]
2 | 2100 | ≥ 20000 | C[C@H]1[C@H](OCc2ccc(S(N)(=O)=O)cc2)O[C@@H]2O[C@@]3(C)CC[C@H]4[C@H](C)CC[C@@H]1[C@@]24OO3 [Compound 49, 4-((((3R,5aS,6R,8aS, 9R,10R,12R, 12aR)-3,6,9-trimethyldeca-hydro-12H-3,12-epoxy[1,2]dioxepino[4,3-i]isochromen-10-yl)oxy)methyl) benzene-sulfonamide]
3 | 95.5 | 243 | C[C@H]1[C@H](N(C)CCS(C)(=O)=O)O[C@@H]2O[C@@]3(C)CC[C@H]4[C@H](C)CC[C@@H]1[C@@]24OO3 [Compound 17, (3R,5aS,6R,8aS, 9R,10R,12R, 12aR)-N,3,6,9-tetramethyl-N-(2-(methylsulfonyl)ethyl)decahydro-12H-3,12-epoxy [1,2]dioxepino [4,3-i] isochromen-10-amine]
4 | 1240 | > 20000 | C[C@H]1[C@@H](Oc2ccc(C(=O)N3CC(C(=O)O)C3)cc2)O[C@@H]2O[C@@]3(C)CC[C@H]4[C@H](C)CC[C@@H]1[C@@]24OO3 [Compound 149, 1-(4-(((3R,5aS,6R,8aS, 9R,10S,12R, 12aR)-3,6,9-trimethyldeca-hydro-12H-3,12-epoxy[1,2]dioxepino[4,3-i]isochromen-10-yl)oxy)benzoyl) azetidine-3-carboxylic acid]
5 | 680 | > 20000 | C[C@H]1[C@H](OC[C@H]2CC[C@H](C(=O)O)CC2)O[C@@H]2O[C@@]3(C)CC[C@H]4[C@H](C)CC[C@@H]1[C@@]24OO3 [Compound 40, (1R,4r)-4-((((3R,5aS,6R,8aS, 9R,10R,12R, 12aR)-3,6,9-trimethyldeca-hydro-12H-3,12-epoxy[1,2]dioxepino[4,3-i]isochromen-10-yl)oxy)methyl) cyclohexane-1-carboxylic acid]
6 | > 20000 | > 20000 | C[C@H]1[C@@H](OCCS(C)(=O)=O)O[C@@H]2O[C@@]3(C)CC[C@H]4[C@H](C)CC[C@@H]1[C@@]24OO3 [Compound 90, (3R,5aS,6R,8aS, 9R,10S,12R, 12aR)-3,6,9-trimethyl-10-(2-(methylsulfonyl)ethoxy)deca-hydro-12H-3,12-epoxy[1,2] dioxepino[4,3-i] isochromene]
7 | 631 | > 20000 | C[C@H]1[C@H](OCc2ccc(C(=O)O)c(F)c2)O[C@@H]2O[C@@]3(C)CC[C@H]4[C@H](C)CC[C@@H]1[C@@]24OO3 [Compound 39, 2-fluoro-4-((((3R,5aS,6R,8aS, 9R,10R,12R, 12aR)-3,6,9-trimethyldeca-hydro-12H-3,12-epoxy[1,2]dioxepino[4,3-i]isochromen-10-yl)oxy)methyl) benzoic acid]
8 | 59.6 | 800 | CC(C)C(C(=O)O)c1ccc(O[C@H]2O[C@@H]3O[C@@]4(C)CC[C@H]5[C@H](C)CC[C@@H]([C@H]2C)[C@@]35OO4)cc1 (stereo partly drawn) [Compound 146, 3-methyl-2-(4-(((3R,5aS,6R,8aS, 9R,10S,12R, 12aR)-3,6,9-trimethyldeca-hydro-12H-3,12-epoxy[1,2]dioxepino[4,3-i]isochromen-10-yl)oxy)phenyl) butanoic acid]
9 | 782 | > 20000 | C[C@H]1[C@H](OCC2CCC(C(=O)O)CC2)O[C@@H]2O[C@@]3(C)CC[C@H]4[C@H](C)CC[C@@H]1[C@@]24OO3 (stereo partly drawn) [Compound 42, (1S,4s)-4-((((3R,5aS,6R, 8aS,9R,10R,12R, 12aR)-3,6,9-trimethyldeca-hydro-12H-3,12-epoxy[1,2]dioxepino[4,3-i]isochromen-10-yl)oxy)methyl) cyclohexane-1-carboxylic acid]
10 | > 20000 | > 20000 | C[C@H]1[C@@H](OCc2cc(C(=O)O)cc(C(=O)O)c2)O[C@@H]2O[C@@]3(C)CC[C@H]4[C@H](C)CC[C@@H]1[C@@]24OO3 [Compound 141, 5-((((3R,5aS,6R,8aS, 9R,10S,12R, 12aR)-3,6,9-trimethyldeca-hydro-12H-3,12-epoxy[1,2]dioxepino[4,3-i]isochromen-10-yl)oxy)methyl) isophthalic acid]
11 | 2340 | 2080 | CNS(=O)(=O)CCN[C@@H]1O[C@@H]2O[C@@]3(C)CC[C@H]4[C@H](C)CC[C@@H]([C@H]1C)[C@@]24OO3 [Compound 97, N-methyl-2-(((3R,5aS,6R,8aS, 9R,10R,12R, 12aR)-3,6,9-trimethyldeca-hydro-12H-3,12-epoxy[1,2]dioxepino[4,3-i]isochromen-10-yl)amino)ethane-1-sulfonamide]
12 | 217 | > 20000 | C[C@H]1[C@@H](Oc2ccc(C(=O)O)c(F)c2)O[C@H]2O[C@@]3(C)CC[C@H]4[C@H](C)CC[C@@H]1[C@@]24OO3 [Compound 25, 2-fluoro-4-(((3R,5aS,6R,8aS, 9R,10S,12S, 12aR)-3,6,9-trimethyldeca-hydro-12H-3,12-epoxy[1,2]dioxepino[4,3-i]isochromen-10-yl)oxy)benzoic acid]
13 | 8190 | 11000 | C[C@H]1[C@@H](Nc2cccc(F)c2)O[C@@H]2O[C@@]3(C)CC[C@H]4[C@H](C)CC[C@@H]1[C@@]24OO3 [Compound 56, (3R,5aS,6R,8aS, 9R,10S,12R, 12aR)-N-(3-fluorophenyl)-3,6,9-trimethyldeca-hydro-12H-3,12-epoxy[1,2] dioxepino[4,3-i] isochromen-10-amine]
14 | > 20000 | > 20000 | C[C@H]1[C@H](N2CCCCC2)O[C@@H]2O[C@@]3(C)CC[C@H]4[C@H](C)CC[C@@H]1[C@@]24OO3 [Compound 63, 1-((3R,5aS,6R,8aS, 9R,10R,12R, 12aR)-3,6,9-trimethyldeca-hydro-12H-3,12-epoxy[1,2]dioxepino[4,3-i]isochromen-10-yl)piperidine]
15 | 59.3 | > 20000 | C[C@H]1[C@@H](Oc2ccc(CC(=O)O)cc2F)O[C@@H]2O[C@@]3(C)CC[C@H]4[C@H](C)CC[C@@H]1[C@@]24OO3 [Compound 9, 2-(3-fluoro-4-(((3R,5aS,6R, 8aS,9R,10S,12R, 12aR)-3,6,9-trimethyldeca-hydro-12H-3,12-epoxy[1,2]dioxepino[4,3-i]isochromen-10-yl)oxy)phenyl) acetic acid]
16 | 78.6 | 87.7 | C[C@H]1[C@@H](OC(=O)CCC(O)c2ccc(Cl)cc2)O[C@@H]2O[C@@]3(C)CC[C@H]4[C@H](C)CC[C@@H]1[C@@]24OO3 (stereo partly drawn) [Compound 93, (3R,5aS,6R,8aS, 9R,10R,12R, 12aR)-3,6,9-trimethyldeca-hydro-12H-3,12-epoxy[1,2] dioxepino[4,3-i] isochromen-10-yl 4-(4-chlorophenyl)-4-hydroxybutanoate]
17 | > 20000 | > 20000 | C[C@H]1[C@H](OCC(=O)N2CCC(C(=O)O)CC2)O[C@@H]2O[C@@]3(C)CC[C@H]4[C@H](C)CC[C@@H]1[C@@]24OO3 [Compound 164, 1-(2-(((3R,5aS,6R,8aS, 9R,10R,12R, 12aR)-3,6,9-trimethyldeca-hydro-12H-3,12-epoxy[1,2]dioxepino[4,3-i]isochromen-10-yl)oxy)acetyl) piperidine-4-carboxylic acid]
18 | 1710 | 4050 | CCN(CC)Cc1ccc(C(C)O[C@@H]2O[C@@H]3O[C@@]4(C)CC[C@H]5[C@H](C)CC[C@@H]([C@H]2C)[C@@]35OO4)cc1O (stereo partly drawn) [Compound 47, 2-((diethylamino)methyl)-5-(1-(((3R,5aS,6R,8aS, 9R,10R,12R, 12aR)-3,6,9-trimethyldeca-hydro-12H-3,12-epoxy[1,2]dioxepino[4,3-i]isochromen-10-yl)oxy)ethyl) phenol]
19 | 2820 | > 20000 | COc1cc(CO[C@@H]2O[C@@H]3O[C@@]4(C)CC[C@H]5[C@H](C)CC[C@@H]([C@H]2C)[C@@]35OO4)ccc1C(=O)O [Compound 54, 2-methoxy-4-((((3R,5aS,6R,8aS, 9R,10R,12R, 12aR)-3,6,9-trimethyldeca-hydro-12H-3,12-epoxy[1,2]dioxepino[4,3-i]isochromen-10-yl)oxy)methyl) benzoic acid]
20 | 92.4 | > 20000 | C[C@H]1[C@H](Oc2ccc(CC(=O)O)cc2)O[C@@H]2O[C@@]3(C)CC[C@H]4[C@H](C)CC[C@@H]1[C@@]24OO3 [Compound 12, 2-(4-(((3R,5aS, 6R,8aS,9R,10R, 12R,12aR)-3,6,9-trimethyldeca-hydro-12H-3,12-epoxy[1,2]dioxepino[4,3-i]isochromen-10-yl)oxy)phenyl) acetic acid]
21 | > 20000 | > 20000 | C[C@H]1[C@H](N2CCC(C(=O)O)CC2)O[C@@H]2O[C@@]3(C)CC[C@H]4[C@H](C)CC[C@@H]1[C@@]24OO3 [Compound 64, 1-((3R,5aS,6R,8aS, 9R,10R,12R, 12aR)-3,6,9-trimethyldeca-hydro-12H-3,12-epoxy[1,2]dioxepino[4,3-i]isochromen-10-yl)piperidine-4-carboxylic acid]
22 | 239 | > 20000 | C[C@H]1[C@@H](Oc2ccc(F)c(CC(=O)O)c2)O[C@@H]2O[C@@]3(C)CC[C@H]4[C@H](C)CC[C@@H]1[C@@]24OO3 [Compound 27, 2-(2-fluoro-5-(((3R,5aS,6R, 8aS,9R,10S,12R, 12aR)-3,6,9-trimethyldeca-hydro-12H-3,12-epoxy[1,2]dioxepino[4,3-i]isochromen-10-yl)oxy)phenyl) acetic acid]
23 | > 20000 | > 20000 | C[C@H]1[C@@H](OC[C@H]2C[C@@H](C(=O)O)C[C@@H](C(=O)O)C2)O[C@@H]2O[C@@]3(C)CC[C@H]4[C@H](C)CC[C@@H]1[C@@]24OO3 [Compound 147, (1R,3S,5r)-5-((((3R,5aS,6R,8aS, 9R,10S,12R, 12aR)-3,6,9-trimethyldeca-hydro-12H-3,12-epoxy[1,2]dioxepino[4,3-i]isochromen-10-yl)oxy)methyl) cyclohexane-1,3-dicarboxylic acid]
